Like-named read-outs stand apart in the source and are kept apart here.
Target: T1, human LPAR1 (Homo sapiens, UniProt Q92633)
T1 construct: host or cells: TangoEDG2-bla U2OS cells
Experiment: Arrestin assay (Arrestin Reporter EDG2-bla U2OS), inhibition of LPA-stimulated signal
Assay type: cell-based
Details: TangoEDG2-bla U2OS cells expressing human LPAR1, 0.25 μM LPA
How it was run: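 TangoEDG2-bla U2OS cells (1×10^4/well, plated 18-20 h) were preincubated 1 h at 37 °C with compound (12-point, 3-fold, 10 μM to 0.00006 μM), then stimulated 3 h with 0.25 μM LPA final. LiveBLAzer FRET B/G 460/530 nm emission ratio gave % inhibition; IC50 from 4-parameter variable-slope fit.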

[1] = read-out: Arrestin Reporter EDG2-bla U2OS Human Merged IC50

T1 sequence (Q92633 whole entry): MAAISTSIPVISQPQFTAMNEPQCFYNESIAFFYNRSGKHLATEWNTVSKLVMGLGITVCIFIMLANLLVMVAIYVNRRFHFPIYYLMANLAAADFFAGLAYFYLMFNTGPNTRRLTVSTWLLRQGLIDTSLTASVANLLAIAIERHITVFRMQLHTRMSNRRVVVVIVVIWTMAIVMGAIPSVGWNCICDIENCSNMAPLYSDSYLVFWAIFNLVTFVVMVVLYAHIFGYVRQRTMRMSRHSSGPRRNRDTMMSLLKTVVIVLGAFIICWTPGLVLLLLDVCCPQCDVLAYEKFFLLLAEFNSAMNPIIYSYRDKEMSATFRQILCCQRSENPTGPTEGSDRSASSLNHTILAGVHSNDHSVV

CC(C)c1ccnn1C1(C(=O)Nc2ccc(Cl)cc2OC(F)F)CCN(CC2(C(=O)O)CCCCC2)CC1 [Compound 42, 1-[[4-[[4-chloro-2-(difluoromethoxy)phenyl]carbamoyl]-4-(5-isopropylpyrazol-1-yl)-1-piperidyl]methyl]cyclohexanecarboxylic acid]
IC50 [1]: 19.1 nM

CC(C)c1ccnn1C1(C(=O)Nc2ccc(Cl)cc2OC(F)F)CCN(CC2(C(=O)O)CCN(C(=O)C3CC3)CC2)CC1 [Compound 43, 4-[[4-[[4-chloro-2-(difluoromethoxy)phenyl]carbamoyl]-4-(5-isopropylpyrazol-1-yl)-1-piperidyl]methyl]-1-(cyclopropanecarbonyl) piperidine-4-carboxylic acid]
IC50 [1]: 27.6 nM

CC(C)c1ccnn1C1(C(=O)Nc2ccc(Cl)cc2OC(F)F)CCN(CC2(C(=O)O)CCN(C(=O)C3CCC3)CC2)CC1 [Compound 44, 4-[[4-[[4-chloro-2-(difluoromethoxy)phenyl]carbamoyl]-4-(5-isopropylpyrazol-1-yl)-1-piperidyl]methyl]-1-(cyclobutanecarbonyl) piperidine-4-carboxylic acid]
IC50 [1]: 30.5 nM

CC(C)c1ccnn1C1(C(=O)Nc2ccc(Cl)cc2OC(F)F)CCN(CC2(C(=O)O)CCC2)CC1 [Compound 45, 1-[[4-[[4-chloro-2-(difluoromethoxy)phenyl]carbamoyl]-4-(5-isopropylpyrazol-1-yl)-1-piperidyl]methyl]cyclobutanecarboxylic acid]
IC50 [1]: 17.6 nM

CC(C)c1ccnn1C1(C(=O)Nc2ccc(Cl)cc2OC(F)F)CCN(C2CC(C(=O)O)C2)CC1 (centres unmarked) [Compound 46, 3-[4-[[4-chloro-2-(difluoromethoxy)phenyl]carbamoyl]-4-(5-isopropylpyrazol-1-yl)-1-piperidyl] cyclobutanecarboxylic acid]
IC50 [1]: 62.7 nM

CC(C)c1ccnn1C1(C(=O)Nc2ccc(Cl)cc2OC(F)F)CCN(CC2(C(=O)O)CCN(C(=O)CC3CCCC3)CC2)CC1 [Compound 47, 4-[[4-[[4-chloro-2-(difluoromethoxy)phenyl]carbamoyl]-4(5-isopropylpyrazol-1-yl)-1-piperidyl]methyl]-1-(2-cyclopentylacetyl) piperidine-4-carboxylic acid]
IC50 [1]: 14.8 nM

CC(C)c1ccnn1C1(C(=O)Nc2ccc(Cl)cc2OC(F)F)CCN(CC2(C(=O)O)CCN(C(=O)CC3CC3)CC2)CC1 [Compound 48]
IC50 [1]: 44 nM

CC(C)c1ccnn1C1(C(=O)Nc2ccc(Cl)cc2OC(F)F)CCN(CC2(CC(=O)O)CC2)CC1 [Compound 49, 2-[1-[[4-[[4-chloro-2-(difluoromethoxy)phenyl]carbamoyl]-4-(5-isopropylpyrazol-1-yl)-1-piperidyl]methyl]cyclopropyl]acetic acid]
IC50 [1]: 73.2 nM

COc1ccc(C(C)(CN2CCC(C(=O)Nc3ccc(Cl)cc3OC(F)F)(n3nccc3C(C)C)CC2)C(=O)O)cc1 (centres unmarked) [Compound 50, 3-[4-[[4-chloro-2-(difluoromethoxy)phenyl]carbamoyl]-4-(5-isopropylpyrazol-1-yl)-1-piperidyl]-2-(4-methoxyphenyl)-2-methyl-propanoic acid]
IC50 [1]: 64.1 nM

CC(C)c1ccnn1C1(C(=O)Nc2ccc(Cl)cc2OC(F)F)CCN(CC2(CC(=O)O)CCOCC2)CC1 [Compound 51, 2-[4-[[4-[[4-chloro-2-(difluoromethoxy)phenyl]carbamoyl]-4-(5-isopropylpyrazol-1-yl)-1-piperidyl]methyl]tetrahydropyran-4-yl]acetic acid]
IC50 [1]: 56.6 nM

CC(C)c1ccnn1C1(C(=O)Nc2ccc(Cl)cc2OC(F)F)CCN(CC(C)(C(=O)O)C2CCOCC2)CC1 (centres unmarked) [Compound 52, 3-[4-[[4-chloro-2-(difluoromethoxy)phenyl]carbamoyl]-4-(5-isopropylpyrazol-1-yl)-1-piperidyl]-2-methyl-2-tetrahydropyran-4-yl-propanoic acid]
IC50 [1]: 70.5 nM

CC(C)c1ccnn1C1(C(=O)Nc2ccc(Cl)cc2OC(F)F)CCN(CC2(C(=O)O)CCN(C(=O)CC34CC(C3)C4)CC2)CC1 [Compound 53, 1-[2-(1-bicyclo[1.1.1]pentanyl)acetyl]-4-[[4-[[4-chloro-2-(difluoromethoxy)phenyl]carbamoyl]-4-(5-isopropylpyrazol-1-yl)-1-piperidyl]methyl]piperidine-4-carboxylic acid]
IC50 [1]: 13.5 nM

COCCC(=O)N1CCC(CN2CCC(C(=O)Nc3ccc(Cl)cc3OC(F)F)(n3nccc3C(C)C)CC2)(C(=O)O)CC1 [Compound 54, 4-[[4-[[4-chloro-2-(difluoromethoxy)phenyl]carbamoyl]-4-(5-isopropylpyrazol-1-yl)-1-piperidyl]methyl]-1-(3-methoxypropanoyl) piperidine-4-carboxylic acid]
IC50 [1]: 56.5 nM

CCOC(=O)N1CC[C@@](CN2CCC(C(=O)Nc3ccc(Cl)cc3OC(F)F)(n3nccc3C(C)C)CC2)(C(=O)O)C1 [Compound 55, (3S)-3-[[4-[[4-chloro-2-(difluoromethoxy)phenyl]carbamoyl]-4-(5-isopropylpyrazol-1-yl)-1-piperidyl]methyl]-1-ethoxycarbonyl-pyrrolidine-3-carboxylic acid]
IC50 [1]: 4.57 nM

CCOC(=O)N1CC[C@](CN2CCC(C(=O)Nc3ccc(Cl)cc3OC(F)F)(n3nccc3C(C)C)CC2)(C(=O)O)C1 [Compound 56, (3R)-3-[[4-[[4-chloro-2-(difluoromethoxy)phenyl]carbamoyl]-4-(5-isopropylpyrazol-1-yl)-1-piperidyl]methyl]-1-ethoxycarbonyl-pyrrolidine-3-carboxylic acid]
IC50 [1]: 6.73 nM

CC(C)c1ccnn1C1(C(=O)Nc2ccc(Cl)cc2OC(F)F)CCN(CC2(C(=O)O)CCN(C(=O)C34CC(C(C)C)(C3)C4)CC2)CC1 [Compound 57, 4-[[4-[[4-chloro-2-(difluoromethoxy)phenyl]carbamoyl]-4-(5-isopropylpyrazol-1-yl)-1-piperidyl]methyl]-1-(3-isopropylbicyclo[1.1.1]pentane-1-carbonyl)piperidine-4-carboxylic acid]
IC50 [1]: 6.83 nM

COC1(C(=O)N2CCC(CN3CCC(C(=O)Nc4ccc(Cl)cc4OC(F)F)(n4nccc4C(C)C)CC3)(C(=O)O)CC2)CC1 [Compound 58, 4-[[4-[[4-chloro-2-(difluoromethoxy)phenyl]carbamoyl]-4-(5-isopropylpyrazol-1-yl)-1-piperidyl]methyl]-1-(1-methoxycyclopropanecarbonyl) piperidine-4-carboxylic acid]
IC50 [1]: 75.6 nM

COCC1(C(=O)N2CCC(CN3CCC(C(=O)Nc4ccc(Cl)cc4OC(F)F)(n4nccc4C(C)C)CC3)(C(=O)O)CC2)CCC1 [Compound 59, 4-[[4-[[4-chloro-2-(difluoromethoxy)phenyl]carbamoyl]-4-(5-isopropylpyrazol-1-yl)-1-piperidyl]methyl]-1-[1-(methoxymethyl)cyclobutanecarbonyl] piperidine-4-carboxylic acid]
IC50 [1]: 26.4 nM

COCC(OC)C(=O)N1CCC(CN2CCC(C(=O)Nc3ccc(Cl)cc3OC(F)F)(n3nccc3C(C)C)CC2)(C(=O)O)CC1 (centres unmarked) [Compound 60, 4-[[4-[[4-chloro-2-(difluoromethoxy)phenyl]carbamoyl]-4-(5-isopropylpyrazol-1-yl)-1-piperidyl]methyl]-1-(2,3-dimethoxypropanoyl) piperidine-4-carboxylic acid]
IC50 [1]: 91.2 nM

CC(C)c1ccnn1C1(C(=O)Nc2ccc(Cl)cc2OC(F)F)CCN([C@H]2C[C@H](C(=O)O)C2)CC1 [Compound 62, (1r,3r)-3-[4-[[4-chloro-2-(difluoromethoxy)phenyl]carbamoyl]-4-(5-isopropylpyrazol-1-yl)-1-piperidyl]cyclobutanecarboxylic acid]
IC50 (read-out: Arrestin Reporter EDG2-bla U2OS Human IC50): 51.5 nM

CC(C)c1ccnn1C1(C(=O)Nc2ccc(Cl)cc2OC(F)F)CCN(CC2(C(=O)O)Cc3ccccc3C2)CC1 [Compound 63, 2-[[4-[[4-chloro-2-(difluoromethoxy)phenyl]carbamoyl]-4-(5-isopropylpyrazol-1-yl)-1-piperidyl]methyl]indane-2-carboxylic acid]
IC50 [1]: 4.5 nM

CCC(=O)N1CC(CN2CCC(C(=O)Nc3ccc(Cl)cc3OC(F)F)(n3nccc3C(C)C)CC2)(C(=O)O)C1 [Compound 64, 3-[[4-[[4-chloro-2-(difluoromethoxy)phenyl]carbamoyl]-4-(5-isopropylpyrazol-1-yl)-1-piperidyl]methyl]-1-propanoyl-azetidine-3-carboxylic acid]
IC50 [1]: 51.5 nM

CC(C)c1ccnn1C1(C(=O)Nc2ccc(Cl)cc2OC(F)F)CCN(CC2(C(=O)O)CCS(=O)(=O)CC2)CC1 [Compound 65, 4-[[4-[[4-chloro-2-(difluoromethoxy)phenyl]carbamoyl]-4-(5-isopropylpyrazol-1-yl)-1-piperidyl]methyl]-1,1-dioxo-thiane-4-carboxylic acid]
IC50 [1]: 9.87 nM

CC(C)c1c(F)cnn1C1(C(=O)Nc2ccc(Cl)cc2OC(F)F)CCN(CC2(C(=O)O)CCOCC2)CC1 [Compound 66, 4-[[4-[[4-chloro-2-(difluoromethoxy)phenyl]carbamoyl]-4-(4-fluoro-5-isopropyl-pyrazol-1-yl)-1-piperidyl]methyl]tetrahydropyran-4-carboxylic acid]
IC50 [1]: 22.8 nM

CCC(CC)(CN1CCC(C(=O)Nc2ccc(Cl)cc2OC(F)F)(n2nccc2C(C)C)CC1)C(=O)O [Compound 67]
IC50 [1]: 20.9 nM

COC12CC(C(=O)N3CCC(CN4CCC(C(=O)Nc5ccc(Cl)cc5OC(F)F)(n5nccc5C(C)C)CC4)(C(=O)O)CC3)(C1)C2 [Compound 68, 4-[[4-[[4-chloro-2-(difluoromethoxy)phenyl]carbamoyl]-4-(5-isopropylpyrazol-1-yl)-1-piperidyl]methyl]-1-(3-methoxybicyclo[1.1.1]pentane-1-carbonyl)piperidine-4-carboxylic acid]
IC50 [1]: 65.6 nM

Reference: patent US20260102383A1, “LPAR1 Inhibitors” (AbbVie Inc., priority 2024, published 2026)
